# Source: BindingDB's records for doi:10.1021/acsmedchemlett.5b00050 (Genomics Institute of The Novartis Research Foundation, 2015)
# What was measured:
# [1] = Inhibition of Tel-fused KIT (unknown origin) expressed in mouse BA/F3 cells after 48 hrs by luciferase reporter gene assay in absence of recombinant mouse IL3
# [2] = Inhibition of Tel-fused FGR (unknown origin) expressed in mouse BA/F3 cells after 48 hrs by luciferase reporter gene assay in absence of recombinant mouse IL3
# [3] = Inhibition of Tel-fused BMX (unknown origin) expressed in mouse BA/F3 cells after 48 hrs by luciferase reporter gene assay in absence of recombinant mouse IL3
# [4] = Inhibition of Tel-fused ROS (unknown origin) expressed in mouse BA/F3 cells after 48 hrs by luciferase reporter gene assay in absence of recombinant mouse IL3
# [5] = Inhibition of Tel-fused FMS (unknown origin) expressed in mouse BA/F3 cells after 48 hrs by luciferase reporter gene assay in absence of recombinant mouse IL3
# [6] = Inhibition of Tel-fused TRKB (unknown origin) overexpressed in mouse BA/F3 cells assessed as inhibition of cell proliferation after 48 hrs by luciferase reporter gene assay in absence of recombinant mouse IL3
# [7] = Inhibition of Tel-fused TRKC (unknown origin) overexpressed in mouse BA/F3 cells assessed as inhibition of cell proliferation after 48 hrs by luciferase reporter gene assay in absence of recombinant mouse IL3
# [8] = Inhibition of Tel-fused ZAP70 (unknown origin) expressed in mouse BA/F3 cells after 48 hrs by luciferase reporter gene assay in absence of recombinant mouse IL3
# [9] = Inhibition of Tel-fused FGFR4 (unknown origin) expressed in mouse BA/F3 cells after 48 hrs by luciferase reporter gene assay in absence of recombinant mouse IL3
# [10] = Inhibition of Tel-fused RON (unknown origin) expressed in mouse BA/F3 cells after 48 hrs by luciferase reporter gene assay in absence of recombinant mouse IL3
# [11] = Inhibition of Tel-fused FLT1 (unknown origin) expressed in mouse BA/F3 cells after 48 hrs by luciferase reporter gene assay in absence of recombinant mouse IL3
# [12] = Inhibition of Tel-fused LCK (unknown origin) expressed in mouse BA/F3 cells after 48 hrs by luciferase reporter gene assay in absence of recombinant mouse IL3
# [13] = Inhibition of Tel-fused KDR (unknown origin) expressed in mouse BA/F3 cells after 48 hrs by luciferase reporter gene assay in absence of recombinant mouse IL3
# [14] = Inhibition of Tel-fused FGFR3 (unknown origin) expressed in mouse BA/F3 cells after 48 hrs by luciferase reporter gene assay in absence of recombinant mouse IL3
# [15] = Inhibition of Tel-fused FLT3 (unknown origin) expressed in mouse BA/F3 cells after 48 hrs by luciferase reporter gene assay in absence of recombinant mouse IL3
# [16] = Inhibition of Tel-fused ALK (unknown origin) expressed in mouse BA/F3 cells after 48 hrs by luciferase reporter gene assay in absence of recombinant mouse IL3
# [17] = Inhibition of Tel-fused IGF1R (unknown origin) expressed in mouse BA/F3 cells after 48 hrs by luciferase reporter gene assay in absence of recombinant mouse IL3
# [18] = Inhibition of Tel-fused MER (unknown origin) expressed in mouse BA/F3 cells after 48 hrs by luciferase reporter gene assay in absence of recombinant mouse IL3
# [19] = Inhibition of Tel-fused MET (unknown origin) expressed in mouse BA/F3 cells after 48 hrs by luciferase reporter gene assay in absence of recombinant mouse IL3
# [20] = Inhibition of Tel-fused SYK (unknown origin) expressed in mouse BA/F3 cells after 48 hrs by luciferase reporter gene assay in absence of recombinant mouse IL3
# [21] = Inhibition of BCR-fused ABL (unknown origin) expressed in mouse BA/F3 cells after 48 hrs by luciferase reporter gene assay in absence of recombinant mouse IL3
# [22] = Inhibition of Tel-fused TRKA (unknown origin) overexpressed in mouse BA/F3 cells assessed as inhibition of cell proliferation after 48 hrs by luciferase reporter gene assay in absence of recombinant mouse IL3
# [23] = Inhibition of Tel-fused PDGFRbeta (unknown origin) expressed in mouse BA/F3 cells after 48 hrs by luciferase reporter gene assay in absence of recombinant mouse IL3
# [24] = Inhibition of Tel-fused INSR (unknown origin) expressed in mouse BA/F3 cells after 48 hrs by luciferase reporter gene assay in absence of recombinant mouse IL3
# [25] = Inhibition of Tel-fused TIE1 (unknown origin) expressed in mouse BA/F3 cells after 48 hrs by luciferase reporter gene assay in absence of recombinant mouse IL3
# [26] = Inhibition of Tel-fused BRAF (unknown origin) expressed in mouse BA/F3 cells after 48 hrs by luciferase reporter gene assay in absence of recombinant mouse IL3
# [27] = Inhibition of Tel-fused SRC (unknown origin) expressed in mouse BA/F3 cells after 48 hrs by luciferase reporter gene assay in absence of recombinant mouse IL3
# [28] = Inhibition of Tel-fused LYN (unknown origin) expressed in mouse BA/F3 cells after 48 hrs by luciferase reporter gene assay in absence of recombinant mouse IL3
# [29] = Inhibition of NMP-fused ALK (unknown origin) expressed in mouse BA/F3 cells after 48 hrs by luciferase reporter gene assay in absence of recombinant mouse IL3
# [30] = Inhibition of NGF-activated full length TRKA (unknown origin) expressed in mouse BA/F3 cells assessed as inhibition of cell proliferation
# [31] = Inhibition of TPM3-fused TRKA (unknown origin) expressed in human KM12 cells assessed as inhibition of cell proliferation after 48 hrs by luciferase reporter gene assay
# [32] = Inhibition of Tel-fused TYRO3 (unknown origin) expressed in mouse BA/F3 cells after 48 hrs by luciferase reporter gene assay in absence of recombinant mouse IL3
# [33] = Inhibition of Tel-fused RET (unknown origin) expressed in mouse BA/F3 cells after 48 hrs by luciferase reporter gene assay in absence of recombinant mouse IL3
smiles,measurement,setting,value
Fc1cccc([C@H]2CCCN2c2ccc3ncc(-c4ccccn4)n3n2)c1,IC50,[1],5.5 µM
same,IC50,[2],8.7 µM
same,IC50,[3],> 10 µM
same,IC50,[4],0.6 µM
same,IC50,[5],> 10 µM
same,IC50,[6],0.001 µM
same,IC50,[7],0.001 µM
N#Cc1ccc(-c2cnc3ccc(NCc4ccccc4)nn23)cc1,IC50,[1],2.2 µM
same,IC50,[8],6.4 µM
same,IC50,[9],5.9 µM
same,IC50,[10],6.1 µM
same,IC50,[11],3 µM
same,IC50,[12],2 µM
same,IC50,[2],6.4 µM
same,IC50,[13],4.1 µM
same,IC50,[3],9.7 µM
same,IC50,[14],3.9 µM
same,IC50,[15],0.72 µM
same,IC50,[16],3.1 µM
same,IC50,[17],4 µM
same,IC50,[4],0.3 µM
same,IC50,[5],3.4 µM
same,IC50,[6],0.27 µM
same,IC50,[18],5.4 µM
same,IC50,[19],5.1 µM
same,IC50,[20],4 µM
same,IC50,[7],0.1 µM
same,IC50,[21],3.8 µM
same,IC50,[22],0.85 µM
same,IC50,[23],2 µM
same,IC50,[24],8.6 µM
same,IC50,[25],5.5 µM
same,IC50,[26],2.5 µM
OC1CCN(c2cc(-c3cnc4ccc(N5CCC[C@@H]5c5cccc(F)c5)nn34)ccn2)CC1,IC50,[1],7 µM
same,IC50,[27],4.6 µM
same,IC50,[9],4.4 µM
same,IC50,[10],4.8 µM
same,IC50,[11],5.3 µM
same,IC50,[12],5.2 µM
same,IC50,[28],4.9 µM
same,IC50,[13],5 µM
same,IC50,[3],4.3 µM
same,IC50,[14],5 µM
same,IC50,[29],3 µM
same,IC50,[15],4.3 µM
same,IC50,[16],3.9 µM
same,IC50,[30],0.003 µM
same,IC50,[4],0.21 µM
same,IC50,[5],5.3 µM
same,IC50,[6],0.004 µM
same,IC50,[18],5.1 µM
same,IC50,[20],7.9 µM
same,IC50,[31],0.01 µM
same,IC50,[7],0.002 µM
same,IC50,[21],5.2 µM
same,IC50,[22],0.004 µM
same,IC50,[23],4.6 µM
same,IC50,[32],5 µM
O=C(O)CN1CCN(c2cc(-c3cnc4ccc(N5CCC[C@@H]5c5cccc(F)c5)nn34)ccn2)CC1,IC50,[1],0.79 µM
same,IC50,[27],2.5 µM
same,IC50,[8],5.2 µM
same,IC50,[9],5.3 µM
same,IC50,[33],3.7 µM
same,IC50,[12],3 µM
same,IC50,[28],3.4 µM
same,IC50,[13],1 µM
same,IC50,[29],1.2 µM
same,IC50,[15],3.3 µM
same,IC50,[16],2.2 µM
same,IC50,[30],0.001 µM
same,IC50,[17],5.1 µM
same,IC50,[4],0.06 µM
same,IC50,[5],2.5 µM
same,IC50,[6],0.001 µM
same,IC50,[19],4.3 µM
same,IC50,[20],4.4 µM
same,IC50,[31],0.001 µM
same,IC50,[7],< 0.001 µM
same,IC50,[21],2.4 µM
same,IC50,[22],0.001 µM
same,IC50,[23],2.2 µM
same,IC50,[24],5.3 µM
same,IC50,[25],4.3 µM
same,IC50,[26],6.2 µM
same,IC50,[32],5.2 µM
N#Cc1ccc(-c2cnc3ccc(N4CCCC4c4cccc(F)c4)nn23)cc1 (centres undefined),IC50,[6],0.029 µM
N#Cc1ccc(-c2cnc3ccc(N4CCC[C@H]4c4cccc(F)c4)nn23)cc1,IC50,[6],1.97 µM
N#Cc1ccc(-c2cnc3ccc(N4CCC[C@@H]4c4cccc(F)c4)nn23)cc1,IC50,[6],0.011 µM
NS(=O)(=O)c1ccc(-c2cnc3ccc(NCc4cccc(F)c4)nn23)cc1,IC50,[6],0.013 µM
same,IC50,[22],0.027 µM
CN(Cc1ccccc1)c1ccc2ncc(-c3ccc(C#N)cc3)n2n1,IC50,[6],0.13 µM
same,IC50,[22],0.52 µM
N#Cc1ccc(-c2cnc3ccc(N4CCCCC4c4cccc(F)c4)nn23)cc1 (centres undefined),IC50,[6],0.05 µM
N#Cc1ccc(-c2cnc3ccc(NCc4cccc(F)c4)nn23)cc1,IC50,[6],0.021 µM
same,IC50,[22],0.05 µM
COc1ccccc1CNc1ccc2ncc(-c3ccc(C#N)cc3)n2n1,IC50,[6],0.12 µM
same,IC50,[22],0.17 µM
OCc1ccc(-c2cnc3ccc(NCc4cccc(F)c4)nn23)cc1,IC50,[6],0.027 µM
same,IC50,[22],0.076 µM
O=C(Nc1ccc(-c2cnc3ccc(NCc4cccc(F)c4)nn23)cc1)C1CCOCC1,IC50,[6],0.007 µM
same,IC50,[22],0.006 µM
N#Cc1cccc(-c2cnc3ccc(NCc4ccccc4)nn23)c1,IC50,[6],0.2 µM
same,IC50,[22],0.74 µM
OC1CCN(c2cccc(-c3cnc4ccc(N5CCC[C@@H]5c5cccc(F)c5)nn34)n2)CC1,IC50,[6],0.004 µM
